Measured values: patent US8637509B2, “Azaindazoles” (GlaxoSmithKline LLC, priority 2010, dated 2014)

target: T1, EZH2 (Homo sapiens, UniProt Q15910); assay: EZH2 methyltransferase SPA assay (3H-SAM, Hela nucleosomes); assay type: biochemical; settings: 10 nM EZH2, 7 μg/ml Hela nucleosomes, 2-parameter IC50 fit; single-point-in-time values; read-out: IC50
T1 construct: GRITS37108
T1 sequence (Q15910 whole entry): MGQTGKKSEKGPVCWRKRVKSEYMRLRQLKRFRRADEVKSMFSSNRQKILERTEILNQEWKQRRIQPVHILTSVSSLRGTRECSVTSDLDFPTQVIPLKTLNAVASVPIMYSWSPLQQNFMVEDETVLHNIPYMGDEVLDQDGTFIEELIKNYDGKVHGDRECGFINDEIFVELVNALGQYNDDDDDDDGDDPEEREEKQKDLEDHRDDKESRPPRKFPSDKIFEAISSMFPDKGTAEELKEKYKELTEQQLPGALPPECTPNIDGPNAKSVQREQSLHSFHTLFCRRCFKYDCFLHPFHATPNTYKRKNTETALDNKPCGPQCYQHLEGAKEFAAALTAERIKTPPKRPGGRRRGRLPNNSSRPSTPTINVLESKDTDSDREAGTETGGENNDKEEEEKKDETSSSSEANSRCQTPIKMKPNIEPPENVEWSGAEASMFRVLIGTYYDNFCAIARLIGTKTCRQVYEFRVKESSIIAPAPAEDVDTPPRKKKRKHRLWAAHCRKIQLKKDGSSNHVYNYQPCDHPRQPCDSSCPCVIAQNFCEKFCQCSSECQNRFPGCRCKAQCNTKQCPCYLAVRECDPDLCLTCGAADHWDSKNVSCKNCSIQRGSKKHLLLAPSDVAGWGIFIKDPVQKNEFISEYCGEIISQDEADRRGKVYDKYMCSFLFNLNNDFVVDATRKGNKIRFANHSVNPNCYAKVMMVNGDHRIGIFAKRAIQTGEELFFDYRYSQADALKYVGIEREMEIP
T1 sequence (O75530 whole entry partner): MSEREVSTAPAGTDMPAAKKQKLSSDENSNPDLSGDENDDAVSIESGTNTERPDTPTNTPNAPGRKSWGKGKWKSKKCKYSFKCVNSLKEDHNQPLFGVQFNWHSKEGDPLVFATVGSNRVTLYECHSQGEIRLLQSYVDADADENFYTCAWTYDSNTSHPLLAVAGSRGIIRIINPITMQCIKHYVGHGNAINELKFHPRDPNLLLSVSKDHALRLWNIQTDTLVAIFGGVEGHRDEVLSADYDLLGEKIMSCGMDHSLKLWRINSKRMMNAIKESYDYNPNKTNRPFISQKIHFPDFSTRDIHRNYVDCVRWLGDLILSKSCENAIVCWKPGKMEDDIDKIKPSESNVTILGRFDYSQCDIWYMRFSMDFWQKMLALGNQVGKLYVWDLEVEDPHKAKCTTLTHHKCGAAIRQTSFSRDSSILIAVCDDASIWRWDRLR
T1 sequence (Q15022 whole entry partner): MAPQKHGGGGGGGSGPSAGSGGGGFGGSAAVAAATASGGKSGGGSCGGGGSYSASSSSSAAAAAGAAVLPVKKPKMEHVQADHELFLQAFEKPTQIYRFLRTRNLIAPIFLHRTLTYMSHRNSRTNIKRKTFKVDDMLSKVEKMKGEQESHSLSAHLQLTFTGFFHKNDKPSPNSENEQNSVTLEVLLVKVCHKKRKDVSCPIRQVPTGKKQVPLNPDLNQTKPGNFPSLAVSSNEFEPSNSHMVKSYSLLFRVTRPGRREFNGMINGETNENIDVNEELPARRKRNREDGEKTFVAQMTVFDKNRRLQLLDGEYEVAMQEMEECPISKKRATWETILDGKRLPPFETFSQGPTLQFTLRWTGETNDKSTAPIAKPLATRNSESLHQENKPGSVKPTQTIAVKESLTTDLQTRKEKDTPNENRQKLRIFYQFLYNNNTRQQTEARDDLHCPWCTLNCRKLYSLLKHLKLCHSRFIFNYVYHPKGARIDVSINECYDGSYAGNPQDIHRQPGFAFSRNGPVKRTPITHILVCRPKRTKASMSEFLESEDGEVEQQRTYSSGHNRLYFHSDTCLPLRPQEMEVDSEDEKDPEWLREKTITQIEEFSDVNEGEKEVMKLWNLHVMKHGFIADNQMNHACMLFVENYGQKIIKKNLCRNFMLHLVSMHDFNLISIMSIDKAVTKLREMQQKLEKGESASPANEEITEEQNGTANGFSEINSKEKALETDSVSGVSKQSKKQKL

Molecule	IC50
6-{[4-(Aminocarbonyl)phenyl]amino}-N-[(4,6-dimethyl-2-oxo-1,2-dihydro-3-pyridinyl)methyl]-1-(1-methylethyl)-1H-pyrazolo[3,4-b]pyridine-4-carboxamide [Ex 86]	0.142 µM

same assay, conditions: read-out: IC50

Molecule	IC50
COc1cc(-c2cc(C(=O)NCc3c(C)cc(C)[nH]c3=O)c3cnn(C(C)C)c3n2)ccn1 [Ex 59, N-[(4,6-Dimethyl-2-oxo-1,2-dihydro-3-pyridinyl)methyl]-1-(1-methylethyl)-6-[2-(methyloxy)-4-pyridinyl]-1H-pyrazolo[3,4-b]pyridine-4-carboxamide]	0.155 µM
Cc1cc(C)c(CNC(=O)c2cc(-c3ccc4[nH]ncc4c3)nc3c2cnn3C(C)C)c(=O)[nH]1 [Ex 74, N-[(4,6-Dimethyl-2-oxo-1,2-dihydro-3-pyridinyl)methyl]-6-(1H-indazol-5-yl)-1-(1-methylethyl)-1H-pyrazolo[3,4-b]pyridine-4-carboxamide]	0.151 µM
Cc1cc(C)c(CNC(=O)c2cc(C#Cc3ccncc3)nc3c2cnn3C(C)C)c(=O)[nH]1 [Ex 33, N-[(4,6-Dimethyl-2-oxo-1,2-dihydro-3-pyridinyl)methyl]-1-(1-methylethyl)-6-(4-pyridinylethynyl)-1H-pyrazolo[3,4-b]pyridine-4-carboxamide]	0.07 µM
Cc1cc(C)c(CNC(=O)c2cc(-c3ccc(C(N)=O)cc3)nc3c2cnn3C(C)C)c(=O)[nH]1 [Ex 94, 6-[4-(Aminocarbonyl)phenyl]-N-[(4,6-dimethyl-2-oxo-1,2-dihydro-3-pyridinyl)methyl]-1-(1-methylethyl)-1H-pyrazolo[3,4-b]pyridine-4-carboxamide]	0.103 µM
Cc1cc(C)c(CNC(=O)c2cc(C3CC3)nc3c2cnn3CCNS(C)(=O)=O)c(=O)[nH]1 [Ex 99, 6-Cyclopropyl-N-[(4,6-dimethyl-2-oxo-1,2-dihydro-3-pyridinyl)methyl]-1-{2-[(methylsulfonyl)amino]ethyl}-1H-pyrazolo[3,4-b]pyridine-4-carboxamide]	25 µM
Cc1cc(C2CC2)[nH]c(=O)c1CNC(=O)c1cc(C2CC2)nc2c1cnn2C(C)C [Ex 19, 6-Cyclopropyl-N-[(6-cyclopropyl-4-methyl-2-oxo-1,2-dihydro-3-pyridinyl)methyl]-1-(1-methylethyl)-1H-pyrazolo[3,4-b]pyridine-4-carboxamide]	3.37 µM
Cc1cc(C)c(CNC(=O)c2cc(-c3ccncc3)nc3c2c(C)nn3C(C)C)c(=O)[nH]1 [Ex 117, N-[(4,6-Dimethyl-2-oxo-1,2-dihydro-3-pyridinyl)methyl]-3-methyl-1-(1-methylethyl)-6-(4-pyridinyl)-1H-pyrazolo[3,4-b]pyridine-4-carboxamide]	0.19 µM
Cc1cc(C(C)C)c(CNC(=O)c2cc(C3CC3)nc3c2cnn3C(C)C)c(=O)[nH]1 [Ex 8, 6-Cyclopropyl-1-(1-methylethyl)-N-{[6-methyl-4-(1-methylethyl)-2-oxo-1,2-dihydro-3-pyridinyl]methyl}-1H-pyrazolo[3,4-b]pyridine-4-carboxamide]	0.167 µM
CNS(=O)(=O)c1ccc(-c2cc(C(=O)NCc3c(C)cc(C)[nH]c3=O)c3cnn(C(C)C)c3n2)cn1 [Ex 97, N-[(4,6-Dimethyl-2-oxo-1,2-dihydro-3-pyridinyl)methyl]-6-{6-[(methylamino)sulfonyl]-3-pyridinyl}-1-(1-methylethyl)-1H-pyrazolo[3,4-b]pyridine-4-carboxamide]	0.055 µM
Cc1cc(C)c(CNC(=O)c2cc(-c3ccc(N)cc3)nc3c2cnn3C(C)C)c(=O)[nH]1 [Ex 43, 6-(4-Aminophenyl)-N-[(4,6-dimethyl-2-oxo-1,2-dihydro-3-pyridinyl)methyl]-1-(1-methylethyl)-1H-pyrazolo[3,4-b]pyridine-4-carboxamide]	0.204 µM
CC(=O)Nc1cccc(-c2cc(C(=O)NCc3c(C)cc(C)[nH]c3=O)c3cnn(C(C)C)c3n2)c1 [Ex 47, 6-[3-(Acetylamino)phenyl]-N-[(4,6-dimethyl-2-oxo-1,2-dihydro-3-pyridinyl)methyl]-1-(1-methylethyl)-1H-pyrazolo[3,4-b]pyridine-4-carboxamide]	0.088 µM
Cc1cc(C(C)C)c(CNC(=O)c2cc(-c3ccncc3)nc3c2cnn3C(C)C)c(=O)[nH]1 [Ex 12, 1-(1-Methylethyl)-N-{[6-methyl-4-(1-methylethyl)-2-oxo-1,2-dihydro-3-pyridinyl]methyl}-6-(4-pyridinyl)-1H-pyrazolo[3,4-b]pyridine-4-carboxamide]	0.055 µM
Cc1cc(C)c(CNC(=O)c2cc(-c3ccc(N4CCN(C)CC4)nc3)nc3c2c(C)nn3C(C)(C)C)c(=O)[nH]1 [Ex 87, 1-(1,1-Dimethylethyl)-N-[(4,6-dimethyl-2-oxo-1,2-dihydro-3-pyridinyl)methyl]-3-methyl-6-[6-(4-methyl-1-piperazinyl)-3-pyridinyl]-1H-pyrazolo[3,4-b]pyridine-4-carboxamide]	0.018 µM
Cc1cc(C)c(CNC(=O)c2cc(NCc3ccccc3)nc3c2cnn3C(C)C)c(=O)[nH]1 [Ex 35, N-[(4,6-Dimethyl-2-oxo-1,2-dihydro-3-pyridinyl)methyl]-1-(1-methylethyl)-6-[(phenylmethyl)amino]-1H-pyrazolo[3,4-b]pyridine-4-carboxamide]	0.673 µM
COc1ncc(-c2cc(C(=O)NCc3c(C)cc(C)[nH]c3=O)c3cnn(C(C)C)c3n2)cc1NS(=O)(=O)C1CC1 [Ex 64, 6-[5-[(Cyclopropylsulfonyl)amino]-6-(methyloxy)-3-pyridinyl]-N-[(4,6-dimethyl-2-oxo-1,2-dihydro-3-pyridinyl)methyl]-1-(1-methylethyl)-1H-pyrazolo[3,4-b]pyridine-4-carboxamide]	0.079 µM
COc1ccc(-c2cc(C(=O)NCc3c(C)cc(C)[nH]c3=O)c3cnn(C(C)C)c3n2)cc1 [Ex 113, N-[(4,6-Dimethyl-2-oxo-1,2-dihydro-3-pyridinyl)methyl]-1-(1-methylethyl)-6-[4-(methyloxy)phenyl]-1H-pyrazolo[3,4-b]pyridine-4-carboxamide]	0.248 µM
CNS(=O)(=O)c1ccc(-c2cc(C(=O)NCc3c(C)cc(C)[nH]c3=O)c3c(C)nn(C(C)C)c3n2)cc1 [Ex 92, N-[(4,6-Dimethyl-2-oxo-1,2-dihydro-3-pyridinyl)methyl]-3-methyl-6-{4-[(methylamino)sulfonyl]phenyl}-1-(1-methylethyl)-1H-pyrazolo[3,4-b]pyridine-4-carboxamide]	0.076 µM
Cc1cc(C)c(CNC(=O)c2cc(-c3cccnc3)nc3c2cnn3C(C)C)c(=O)[nH]1 [Ex 73, N-[(4,6-Dimethyl-2-oxo-1,2-dihydro-3-pyridinyl)methyl]-1-(1-methylethyl)-6-(3-pyridinyl)-1H-pyrazolo[3,4-b]pyridine-4-carboxamide]	0.533 µM
Cc1cc(C)c(CNC(=O)c2cc(-c3ccc(N4CCOCC4)nc3)nc3c2c(C)nn3C(C)(C)C)c(=O)[nH]1 [Ex 89, 1-(1,1-Dimethylethyl)-N-[(4,6-dimethyl-2-oxo-1,2-dihydro-3-pyridinyl)methyl]-3-methyl-6-[6-(4-morpholinyl)-3-pyridinyl]-1H-pyrazolo[3,4-b]pyridine-4-carboxamide]	0.067 µM
Cc1cc(C)c(CNC(=O)c2cc(C3CC3)nc3c2c(C)nn3C2CCCC2)c(=O)[nH]1 [Ex 106, 1-Cyclopentyl-6-cyclopropyl-N-[(4,6-dimethyl-2-oxo-1,2-dihydro-3-pyridinyl)methyl]-3-methyl-1H-pyrazolo[3,4-b]pyridine-4-carboxamide]	0.119 µM
